According to ChEMBL document CHEMBL3259629, “Discovery and optimization of piperidyl-1,2,3-triazole ureas as potent, selective, and in vivo-active inhibitors of α/β-hydrolase domain containing 6 (ABHD6)” (J Med Chem, 2013):

Key:
Conditions in all cases: Neuro2a, 3 nM
[1] = molecular target: Serine hydrolase RBBP9 (Mus musculus) (UniProt O88851)
Description: Inhibition of Rbbp9 in mouse Neuro2a cells at 3 nM after 4 hrs by ABPP-SILAC assay

[2] = molecular target: T1, Monoacylglycerol lipase ABHD6 (Mus musculus) (UniProt Q8R2Y0)
T1 sequence (whole entry): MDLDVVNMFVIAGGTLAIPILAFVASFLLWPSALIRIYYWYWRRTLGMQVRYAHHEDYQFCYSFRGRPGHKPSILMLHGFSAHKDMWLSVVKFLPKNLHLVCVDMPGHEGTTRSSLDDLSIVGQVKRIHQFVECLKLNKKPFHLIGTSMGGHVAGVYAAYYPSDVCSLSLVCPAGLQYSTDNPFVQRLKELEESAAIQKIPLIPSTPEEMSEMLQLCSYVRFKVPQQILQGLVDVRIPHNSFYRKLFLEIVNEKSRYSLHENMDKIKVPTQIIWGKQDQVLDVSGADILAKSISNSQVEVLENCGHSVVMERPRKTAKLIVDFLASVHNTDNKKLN
Description: Inhibition of Abhd6 in mouse Neuro2a cells at 3 nM after 4 hrs by ABPP-SILAC assay

[3] = molecular target: T2, Rhomboid-related protein 4 (Mus musculus) (UniProt Q8BHC7)
T2 sequence (whole entry): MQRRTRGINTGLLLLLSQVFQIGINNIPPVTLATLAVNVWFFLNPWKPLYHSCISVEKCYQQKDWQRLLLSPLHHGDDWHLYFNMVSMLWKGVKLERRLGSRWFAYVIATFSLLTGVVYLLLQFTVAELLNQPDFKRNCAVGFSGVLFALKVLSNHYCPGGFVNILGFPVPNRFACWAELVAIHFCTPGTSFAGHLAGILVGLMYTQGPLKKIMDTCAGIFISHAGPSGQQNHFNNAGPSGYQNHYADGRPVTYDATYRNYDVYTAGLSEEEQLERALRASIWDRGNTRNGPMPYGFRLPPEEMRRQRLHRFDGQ
Description: Inhibition of Rhbdd1 in mouse Neuro2a cells at 3 nM after 4 hrs by ABPP-SILAC assay

[4] = molecular target: Dipeptidyl peptidase 2 (Mus musculus) (UniProt Q9ET22)
Description: Inhibition of Dpp7 in mouse Neuro2a cells at 3 nM after 4 hrs by ABPP-SILAC assay

[5] = molecular target: T3, Presenilin-associated rhomboid-like protein, mitochondrial (Mus musculus) (UniProt Q5XJY4)
T3 sequence (whole entry): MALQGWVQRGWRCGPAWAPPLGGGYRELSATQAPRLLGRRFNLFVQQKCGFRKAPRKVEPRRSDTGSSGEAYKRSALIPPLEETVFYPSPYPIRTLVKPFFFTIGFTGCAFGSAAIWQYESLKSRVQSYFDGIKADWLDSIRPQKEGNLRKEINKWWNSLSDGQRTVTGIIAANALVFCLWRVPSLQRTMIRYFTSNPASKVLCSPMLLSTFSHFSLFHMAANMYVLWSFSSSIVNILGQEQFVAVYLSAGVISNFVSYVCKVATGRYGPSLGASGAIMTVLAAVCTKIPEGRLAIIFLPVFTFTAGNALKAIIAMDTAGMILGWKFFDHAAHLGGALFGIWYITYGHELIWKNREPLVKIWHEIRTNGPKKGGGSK
Description: Inhibition of Parl in mouse Neuro2a cells at 3 nM after 4 hrs by ABPP-SILAC assay

[6] = molecular target: T4, sn-1-specific diacylglycerol lipase ABHD11 (Mus musculus) (UniProt Q8K4F5)
T4 sequence (whole entry): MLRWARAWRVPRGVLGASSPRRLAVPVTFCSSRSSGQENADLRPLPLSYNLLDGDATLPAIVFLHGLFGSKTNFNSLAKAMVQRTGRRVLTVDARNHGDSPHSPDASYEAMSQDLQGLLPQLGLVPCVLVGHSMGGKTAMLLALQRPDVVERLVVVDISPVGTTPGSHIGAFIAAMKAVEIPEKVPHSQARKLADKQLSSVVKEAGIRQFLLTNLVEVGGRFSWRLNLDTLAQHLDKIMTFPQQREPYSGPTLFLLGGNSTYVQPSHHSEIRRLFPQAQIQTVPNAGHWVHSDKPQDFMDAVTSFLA
Description: Inhibition of Abhd11 in mouse Neuro2a cells at 3 nM after 4 hrs by ABPP-SILAC assay

[7] = molecular target: T5, Lysophospholipase-like protein 1 (Mus musculus) (UniProt Q3UFF7)
T5 sequence (whole entry): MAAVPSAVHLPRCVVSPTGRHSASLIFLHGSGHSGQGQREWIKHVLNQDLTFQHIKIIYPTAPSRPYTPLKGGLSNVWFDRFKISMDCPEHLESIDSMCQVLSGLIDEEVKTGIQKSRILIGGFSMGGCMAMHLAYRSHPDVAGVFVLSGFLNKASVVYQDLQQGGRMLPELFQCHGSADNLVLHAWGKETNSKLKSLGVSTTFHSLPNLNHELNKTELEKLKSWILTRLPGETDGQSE
Description: Inhibition of Lyplal1 in mouse Neuro2a cells at 3 nM after 4 hrs by ABPP-SILAC assay

[8] = molecular target: T6, Phosphatidylserine lipase ABHD16A (Mus musculus) (UniProt Q9Z1Q2)
T6 sequence (whole entry): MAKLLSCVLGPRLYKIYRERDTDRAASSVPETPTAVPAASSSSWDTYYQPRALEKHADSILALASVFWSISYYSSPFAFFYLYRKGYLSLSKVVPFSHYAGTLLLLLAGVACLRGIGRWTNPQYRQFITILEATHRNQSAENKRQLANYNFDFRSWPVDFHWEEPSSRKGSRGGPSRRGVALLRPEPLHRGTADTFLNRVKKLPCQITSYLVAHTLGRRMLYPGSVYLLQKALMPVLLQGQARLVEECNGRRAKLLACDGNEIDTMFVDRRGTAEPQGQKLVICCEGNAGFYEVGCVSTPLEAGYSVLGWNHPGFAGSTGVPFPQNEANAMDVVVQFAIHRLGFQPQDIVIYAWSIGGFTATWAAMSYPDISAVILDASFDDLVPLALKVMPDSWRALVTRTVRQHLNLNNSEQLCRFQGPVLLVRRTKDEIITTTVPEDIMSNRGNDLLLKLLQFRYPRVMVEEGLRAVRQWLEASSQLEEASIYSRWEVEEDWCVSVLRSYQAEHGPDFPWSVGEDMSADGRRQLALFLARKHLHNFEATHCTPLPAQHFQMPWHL
Description: Inhibition of Bat5 in mouse Neuro2a cells at 3 nM after 4 hrs by ABPP-SILAC assay

[9] = molecular target: Fatty acid synthase (Mus musculus) (UniProt P19096)
Description: Inhibition of Fasn in mouse Neuro2a cells at 3 nM after 4 hrs by ABPP-SILAC assay

[10] = molecular target: T7, Retinoid-inducible serine carboxypeptidase (Mus musculus) (UniProt Q920A5)
T7 sequence (whole entry): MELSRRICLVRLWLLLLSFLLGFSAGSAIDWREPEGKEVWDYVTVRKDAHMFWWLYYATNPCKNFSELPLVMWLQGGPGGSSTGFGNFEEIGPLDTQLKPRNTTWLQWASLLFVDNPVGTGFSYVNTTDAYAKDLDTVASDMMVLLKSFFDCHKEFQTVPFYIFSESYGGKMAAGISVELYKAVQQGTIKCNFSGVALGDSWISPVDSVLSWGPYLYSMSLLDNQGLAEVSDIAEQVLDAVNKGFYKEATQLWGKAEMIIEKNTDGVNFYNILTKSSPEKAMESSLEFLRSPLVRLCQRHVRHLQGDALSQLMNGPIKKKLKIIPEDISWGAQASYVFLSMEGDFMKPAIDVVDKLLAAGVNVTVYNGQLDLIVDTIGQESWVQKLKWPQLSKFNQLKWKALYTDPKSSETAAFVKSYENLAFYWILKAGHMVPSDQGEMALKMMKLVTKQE
Description: Inhibition of Scpep1 in mouse Neuro2a cells at 3 nM after 4 hrs by ABPP-SILAC assay

Chain of Fatty acid synthase (Mus musculus) (P19096 whole entry): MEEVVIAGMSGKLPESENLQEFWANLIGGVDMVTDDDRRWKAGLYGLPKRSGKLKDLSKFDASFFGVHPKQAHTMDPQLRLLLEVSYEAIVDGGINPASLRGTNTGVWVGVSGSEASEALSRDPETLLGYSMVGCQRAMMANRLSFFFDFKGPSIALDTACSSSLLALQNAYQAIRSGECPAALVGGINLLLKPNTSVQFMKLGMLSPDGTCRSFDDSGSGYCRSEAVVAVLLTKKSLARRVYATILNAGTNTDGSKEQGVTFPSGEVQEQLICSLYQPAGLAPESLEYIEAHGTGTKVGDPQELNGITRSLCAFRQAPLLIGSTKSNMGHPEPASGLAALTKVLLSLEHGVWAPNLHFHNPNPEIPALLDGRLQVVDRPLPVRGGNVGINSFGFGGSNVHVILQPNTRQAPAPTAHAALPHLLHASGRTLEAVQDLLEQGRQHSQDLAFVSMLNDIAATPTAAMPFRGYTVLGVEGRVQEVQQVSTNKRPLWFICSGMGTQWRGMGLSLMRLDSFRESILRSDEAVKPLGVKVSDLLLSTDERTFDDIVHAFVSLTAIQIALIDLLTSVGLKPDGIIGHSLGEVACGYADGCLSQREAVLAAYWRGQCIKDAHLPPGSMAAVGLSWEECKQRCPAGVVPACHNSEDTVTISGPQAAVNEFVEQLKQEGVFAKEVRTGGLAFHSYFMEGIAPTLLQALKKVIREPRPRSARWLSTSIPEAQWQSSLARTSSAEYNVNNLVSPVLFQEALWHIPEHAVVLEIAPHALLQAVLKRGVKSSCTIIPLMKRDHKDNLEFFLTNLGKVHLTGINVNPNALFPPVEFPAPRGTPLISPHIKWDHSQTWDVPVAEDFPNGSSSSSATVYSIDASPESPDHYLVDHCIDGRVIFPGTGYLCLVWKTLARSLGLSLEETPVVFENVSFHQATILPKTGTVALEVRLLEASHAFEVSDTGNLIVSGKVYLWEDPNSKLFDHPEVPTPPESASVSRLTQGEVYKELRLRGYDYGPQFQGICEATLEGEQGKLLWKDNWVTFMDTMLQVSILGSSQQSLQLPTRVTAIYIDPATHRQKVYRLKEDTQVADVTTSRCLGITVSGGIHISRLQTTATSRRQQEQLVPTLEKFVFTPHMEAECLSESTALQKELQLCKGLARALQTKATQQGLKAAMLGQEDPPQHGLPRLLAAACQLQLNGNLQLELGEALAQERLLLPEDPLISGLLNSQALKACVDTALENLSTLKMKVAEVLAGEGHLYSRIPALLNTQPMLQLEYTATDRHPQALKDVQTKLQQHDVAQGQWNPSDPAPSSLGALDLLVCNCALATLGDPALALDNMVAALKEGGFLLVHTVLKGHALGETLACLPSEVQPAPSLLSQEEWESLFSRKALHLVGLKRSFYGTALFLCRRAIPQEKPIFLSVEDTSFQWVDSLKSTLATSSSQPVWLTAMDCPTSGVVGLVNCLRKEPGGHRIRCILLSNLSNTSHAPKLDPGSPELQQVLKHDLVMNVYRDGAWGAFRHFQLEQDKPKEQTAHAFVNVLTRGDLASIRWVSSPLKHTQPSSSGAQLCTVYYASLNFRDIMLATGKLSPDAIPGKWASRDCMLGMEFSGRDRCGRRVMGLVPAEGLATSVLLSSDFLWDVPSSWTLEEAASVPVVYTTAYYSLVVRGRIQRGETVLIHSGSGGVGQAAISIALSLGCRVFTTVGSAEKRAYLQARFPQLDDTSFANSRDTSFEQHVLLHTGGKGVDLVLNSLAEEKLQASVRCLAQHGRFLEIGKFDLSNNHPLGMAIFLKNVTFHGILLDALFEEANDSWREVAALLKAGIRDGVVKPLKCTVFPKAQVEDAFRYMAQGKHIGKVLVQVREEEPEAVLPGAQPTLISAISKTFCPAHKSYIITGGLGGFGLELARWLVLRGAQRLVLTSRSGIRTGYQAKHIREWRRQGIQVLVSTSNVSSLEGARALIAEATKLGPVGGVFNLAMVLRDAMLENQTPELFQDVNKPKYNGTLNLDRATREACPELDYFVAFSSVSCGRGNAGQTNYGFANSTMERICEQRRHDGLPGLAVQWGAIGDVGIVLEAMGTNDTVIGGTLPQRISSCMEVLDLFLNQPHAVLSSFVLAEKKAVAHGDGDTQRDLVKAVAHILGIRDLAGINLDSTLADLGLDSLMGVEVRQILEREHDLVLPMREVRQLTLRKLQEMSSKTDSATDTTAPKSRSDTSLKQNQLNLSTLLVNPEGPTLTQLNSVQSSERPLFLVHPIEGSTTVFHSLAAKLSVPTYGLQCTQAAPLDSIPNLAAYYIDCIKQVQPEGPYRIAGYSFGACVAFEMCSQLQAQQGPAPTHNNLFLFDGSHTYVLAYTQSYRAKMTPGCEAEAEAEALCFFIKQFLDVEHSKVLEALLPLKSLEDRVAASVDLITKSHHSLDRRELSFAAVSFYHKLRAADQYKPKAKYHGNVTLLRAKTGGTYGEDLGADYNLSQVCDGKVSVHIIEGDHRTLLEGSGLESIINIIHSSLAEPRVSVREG
Chain of Dipeptidyl peptidase 2 (Mus musculus) (Q9ET22 whole entry): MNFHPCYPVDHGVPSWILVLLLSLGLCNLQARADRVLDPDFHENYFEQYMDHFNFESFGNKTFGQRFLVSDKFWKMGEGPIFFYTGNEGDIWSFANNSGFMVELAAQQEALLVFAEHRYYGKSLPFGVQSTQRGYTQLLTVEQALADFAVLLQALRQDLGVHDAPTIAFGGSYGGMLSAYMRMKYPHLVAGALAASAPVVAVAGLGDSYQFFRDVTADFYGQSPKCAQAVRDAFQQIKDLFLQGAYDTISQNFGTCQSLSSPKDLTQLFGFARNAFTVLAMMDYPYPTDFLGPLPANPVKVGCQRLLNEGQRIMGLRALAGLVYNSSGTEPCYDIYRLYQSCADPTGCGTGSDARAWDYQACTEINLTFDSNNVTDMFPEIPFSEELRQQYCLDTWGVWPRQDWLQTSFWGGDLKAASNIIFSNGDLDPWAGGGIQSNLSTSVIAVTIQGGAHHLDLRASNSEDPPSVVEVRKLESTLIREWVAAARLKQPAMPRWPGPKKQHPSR
Chain of Serine hydrolase RBBP9 (Mus musculus) (O88851 whole entry): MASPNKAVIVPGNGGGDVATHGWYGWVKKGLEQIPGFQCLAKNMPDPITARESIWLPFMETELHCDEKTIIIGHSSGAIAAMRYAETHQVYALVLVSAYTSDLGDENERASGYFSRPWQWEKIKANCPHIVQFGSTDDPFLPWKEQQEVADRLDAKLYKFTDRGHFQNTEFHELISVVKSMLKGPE

| SMILES | inhibition [1] [%] | inhibition [2] [%] | inhibition [3] [%] | inhibition [4] [%] | inhibition [5] [%] | inhibition [6] [%] | inhibition [7] [%] | inhibition [8] [%] | inhibition [9] [%] | inhibition [10] [%] |
| --- | --- | --- | --- | --- | --- | --- | --- | --- | --- | --- |
| O=C(c1cccc(-c2ccc(-c3cn(C(=O)N4CCCCC4c4ccccc4)nn3)cc2)c1)N1CCCCC1 (racemic) | < 50 | > 80 | < 50 | < 50 | < 50 | < 50 | < 50 | < 50 | < 50 | < 50 |
| O=C(N1CCCCC1c1ccccc1)n1cc(-c2ccc(-c3cccc(CO)c3)cc2)nn1 (racemic) | < 50 | > 90 | < 50 | < 50 | < 50 | < 50 | < 50 | < 50 | < 50 | < 50 |
| O=C(O)c1cccc(-c2ccc(-c3cn(C(=O)N4CCCCC4Cc4ccccc4)nn3)cc2)c1 (racemic) | < 50 | > 90 | < 50 | < 50 | < 50 | < 50 | < 50 | < 50 | < 50 | < 50 |
